This is an account of results in patent US11618746B2, “Inhibitors of APOL1 and methods of using same” (Vertex Pharmaceuticals Incorporated, priority 2018, dated 2023).

Some results are limits rather than exact numbers.

A word on the IC50: it is the concentration that gives 50% inhibition. Higher therefore signals lower potency.

This assay addresses T1, G1 APOL1 (Homo sapiens, UniProt O14791, I384M/S342G).
T1 construct: expressed in transfected cells
T1 sequence (O14791 28-398 S342G/I384M): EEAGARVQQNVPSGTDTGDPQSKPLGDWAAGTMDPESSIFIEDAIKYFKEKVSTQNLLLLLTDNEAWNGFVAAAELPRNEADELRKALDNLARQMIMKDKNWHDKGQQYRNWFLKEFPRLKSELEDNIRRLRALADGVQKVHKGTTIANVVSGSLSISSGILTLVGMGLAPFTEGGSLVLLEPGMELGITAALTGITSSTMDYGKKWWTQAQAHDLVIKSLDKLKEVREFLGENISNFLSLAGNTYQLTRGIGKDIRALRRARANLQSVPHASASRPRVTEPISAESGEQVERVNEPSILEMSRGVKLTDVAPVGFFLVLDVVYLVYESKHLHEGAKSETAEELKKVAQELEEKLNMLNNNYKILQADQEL
As to the kind of experiment: Acute APOL1 Thallium Assay with inducible stable clones of HEK 293 cells. Format: cell-based. Particulars: HEK T-Rex tetracycline-inducible cells expressing G1 APOL1 (clone G1 DC3.25); inhibition of thallium flux rate. An excerpt:
Acute APOL1 Thallium Assay with Inducible Stable Clones of HEK 293 Cells
Apolipoprotein L1 (APOL1) proteins form potassium-permeable cation pores in the plasma membrane. APOL1 risk variants (G1 and G2) induce greater potassium flux than G0 in HEK293 cells. This assay exploits the permeability of thallium (T1+) through ligand-gated potassium channels. The dye produces a bright fluorescent signal upon binding to T1+ conducted through potassium channels. The intensity of the T1+ signal is proportional to the number of potassium channels in the open state. Therefore, it provides a functional indication of the potassium channel activities. During the initial dye-loading step, the T1+ indicator dye as an acetoxymethyl (AM) ester enters the cells through passive diffusion. Cytoplasm esterases cleave the AM ester and relieve its active thallium-sensitive form. The cells are then stimulated with T1+. The increase of fluorescence in the assay represents the influx of T1+ into the cell specifically through the potassium channel (i.e. through APOL1 pores), providing a functional measurement of potassium channel/pore activity. The Thallium assay is conducted with cells expressing G1 APOL1.
APOL1 Cell Line (HEK T-Rex Stable Inducible Cell Line) • HEK T-Rex System • Tetracycline (Tet) inducible mammalian expression system. • Stably express the Tet repressor to regulate transcription. • Expression under the full-length CMV promoter. • APOL1 stable inducible cell line Clone used: G1 DC3.25
Tissue Culture Media • Cell Culture Medium • DMEM +10% FBS +P/S +5 μg/mL blasticidin+1 μg/mL puromycin. • 500 mL DMEM +55 mL FBS +5 mL P/S +280 μL blasticidin S HCl (10 mg/mL)+56 μL puromycin (10 mg/mL). • Cell Assay Medium • DMEM with 2% FBS+pen strep.
Instruments and Equipment • Nuaire cell culture hood, Cat. No. 540-600 • 37° C./5% CO2 incubator link to robotic arm, Liconic: STX110 • Molecular Devices FLIPR^Tetra High throughput cellular screening system, Cat. No. FT0324, Molecular Devices • ThermoFisher MultiDrop 384, Cat. No. 5840300 • Biotek Microfill, Cat. No. ASF1000A-4145 • BioRad TC10 cell counter, Cat. No. 145-0010 Assay Procedures
Cells Scaled Up from Frozen Vials • APOL1 G1 3.25 (HEK293 T-Rex) frozen vials: 5 million cells per vial • Step 1, Day 1: Defrost frozen vial into T-225. • Step 2, Day 5: (when 85% confluent): Split one T-225 at 3×10^6 cells per flask. • Step 3, Day 8: Splits cells to set up for the assay plates as described below.
T-Rex APOL1 HEK cells are split twice per week to keep the confluence state below 85% of the culture flask surface area. Cells can be kept until passage 25. • Cell Culture Medium • DMEM high glucose +10% FBS, +P/S, +5 μg/mL blasticidin, +1 μg/mL puromycin. • 500 mL DMEM, +55 mL FBS, +5 mL P/S, +280 μL blasicidin 10 mg/mL, +56 μL Puromycin 10 mg/mL. • Assay Media • Opti-MEM reduced serum medium from Invitrogen.
Preparation of Cell Assay Plates • Culture medium is removed from the x cm^2 T-flask by aspiration. • The cell monolayer is rinsed with PBS 1× at room temperature. PBS is removed by aspiration. • Cells are trypsinized using Trypsin. • The flasks are incubated at room temperature for 2-3 minutes. • Complete DMEM medium is then added. Cell suspension is then transferred to a 50 mL Falcon polypropylene tube. • Cells are then counted using a Biorad TC10 cell counter and the required amount of cells are centrifuged at 1200 RPM for 5 minutes. Required amount is 1.3×10^6 cells/mL APOL1 T-Rex HEK cells. • The pellet is suspended in the assay medium. • Using the MultiDrop, add 20 μL to each well (corresponds to 26000 cells total per well) of a 384-well black, transparent, flat bottom Poly-D coated plate. • Tetracycline as prepared in the following section is added to the cells before plating to induce APOL1 expression. • Plates are left at room temperature for 20 to 30 minutes before incubation at 37° C. and 5% CO2. […]
On to `O=C(CCc1c(-c2ccc(F)cc2)[nH]c2ccc(F)cc12)N[C@@H]1CCNC1=O` [Compound 49], for which the IC50 is 250 to 1000 nM. `O=C(CCc1c(-c2ccccc2)[nH]c2c(F)cccc12)N[C@@H]1C(=O)NC[C@H]1O` [Compound 61]: the IC50 was less than 250 nM. Under `O=C(CCc1c(-c2cc(F)cc(F)c2)[nH]c2c(F)cc(F)cc12)N[C@@H]1C(=O)NC[C@H]1O` [Compound 104] stands less than 250 nM; under `O=C(CCc1c(-c2ccc(F)cc2)[nH]c2ccc(O)cc12)N[C@H]1CCNC1=O` [Compound 55, 3-[2-(4-fluorophenyl)-5-hydroxy-1H-indol-3-yl]-N-[(3S)-2-oxopyrrolidin-3-yl]propanamide], more than 1000 nM; under `O=C(CCc1c(-c2ccccc2)[nH]c2cc(F)ccc12)N[C@@H]1C(=O)NC[C@H]1O` [Compound 109, 3-(6-fluoro-2-phenyl-1H-indol-3-yl)-N-[(3S,4R)-4-hydroxy-2-oxo-pyrrolidin-3-yl]propanamide], less than 250 nM. Turning to `O=C(CCc1c(-c2ccccc2)[nH]c2c(Br)cccc12)N[C@@H]1C(=O)NC[C@H]1O` [Compound 70], the IC50 was less than 250 nM. `Cc1ccc(-c2[nH]c3ccccc3c2CCC(=O)N[C@@H]2C(=O)NC[C@H]2O)cc1` [Compound 124] showed an IC50 of less than 250 nM.

`O=C(CCc1c(-c2ccc(F)cc2)[nH]c2c(Cl)cc(F)cc12)N[C@@H]1C(=O)NC[C@H]1O` [Compound 36]: the IC50 is less than 250 nM.

In turn, `O=C1C[C@H](NC(=O)CCc2c(-c3ccc(F)cc3)[nH]c3c(F)cc(F)cc23)C(=O)N1` [Compound 5] registered an IC50 of 250 to 1000 nM. Under `O=C(CCc1c(-c2ccc(OC(F)F)cc2)[nH]c2c(F)cc(F)cc12)N[C@@H]1C(=O)NC[C@H]1O` [Compound 102] stands less than 250 nM; under `COc1ccc(-c2[nH]c3ccccc3c2CCC(=O)N[C@@H]2C(=O)NC[C@H]2O)cc1` [Compound 121], less than 250 nM; under `O=C(CCc1c(-c2ccccc2)[nH]c2ccc(Cl)cc12)N[C@@H]1C(=O)NC[C@H]1O` [Compound 44, 3-(5-chloro-2-phenyl-1H-indol-3-yl)-N-[(3S,4R)-4-hydroxy-2-oxo-pyrrolidin-3-yl]propanamide], less than 250 nM. Under `O=C(CCc1c(-c2cccc(F)c2)[nH]c2c(F)cc(F)cc12)N[C@@H]1C(=O)NC[C@H]1O` [Compound 103] stands less than 250 nM; under `N#Cc1cc(F)c2[nH]c(-c3ccc(F)cc3)c(CCC(=O)N[C@H]3CCNC3=O)c2c1` [Compound 28], more than 1000 nM; under `Cc1ccc(-c2[nH]c3ccccc3c2CCC(=O)N[C@@H]2C(=O)NC[C@H]2O)cc1F` [Compound 126], less than 250 nM. Under `O=C(CCc1c(-c2ccc(F)cc2)[nH]c2c(F)cc(F)cc12)N[C@H]1C[C@@H](CO)NC1=O` [Compound 7] stands more than 1000 nM. For the molecule `O=C(CCc1c(-c2ccc(F)cc2)[nH]c2c(F)cccc12)N[C@H]1CCNC1=O` [Compound 75], the IC50 was less than 250 nM. Under `O=C(CCc1c(-c2ccc(OC(F)F)cc2)[nH]c2c(F)cc(F)cc12)N[C@H]1CCNC1=O` [Compound 21] stands less than 250 nM; under `N#Cc1cc(F)cc2c(CCC(=O)N[C@@H]3C(=O)NC[C@H]3O)c(-c3ccc(F)cc3)[nH]c12` [Compound 42], less than 250 nM. Under `Cc1ccc2[nH]c(-c3ccc(Br)cc3)c(CCC(=O)N[C@H]3CCNC3=O)c2c1` [Compound 43, 3-[2-(4-bromophenyl)-5-methyl-1H-indol-3-yl]-N-[(3S)-2-oxopyrrolidin-3-yl]propanamide] stands less than 250 nM; under `Cc1c(F)c(F)cc2c(CCC(=O)N[C@@H]3C(=O)NC[C@H]3O)c(-c3ccccc3)[nH]c12` [Compound 99, 3-(5,6-difluoro-7-methyl-2-phenyl-1H-indol-3-yl)-N-[(3S,4R)-4-hydroxy-2-oxo-pyrrolidin-3-yl]propanamide], less than 250 nM. Under `Cc1ccc(-c2[nH]c3ccccc3c2CCC(=O)N[C@@H]2C(=O)NC[C@H]2O)c(F)c1` [Compound 122] stands less than 250 nM; under `O=C(CCc1c(-c2ccc(C(F)F)cc2)[nH]c2ccccc12)N[C@@H]1C(=O)NC[C@H]1O` [Compound 131, 3-[2-[4-(difluoromethyl)phenyl]-1H-indol-3-yl]-N-[(3S,4R)-4-hydroxy-2-oxo-pyrrolidin-3-yl]propanamide], less than 250 nM; under `O=C(CCc1c(-c2ccccc2)[nH]c2ccc(F)cc12)N[C@@H]1C(=O)NC[C@H]1O` [Compound 51], less than 250 nM. In the case of `O=C(CCc1c(-c2ccc(F)cc2)[nH]c2c(F)cc(F)cc12)N[C@H]1C[C@H](CO)NC1=O` [Compound 8], the IC50 is more than 1000 nM. Under `N#Cc1ccc(-c2[nH]c3c(F)cc(F)cc3c2CCC(=O)N[C@H]2CCNC2=O)cc1` [Compound 20, 3-[2-(4-cyanophenyl)-5,7-difluoro-1H-indol-3-yl]-N-[(3S)-2-oxopyrrolidin-3-yl]propanamide] stands less than 250 nM; under `O=C(CCc1c(-c2ccc(F)cc2)[nH]c2c(F)cc(Br)cc12)N[C@H]1CCNC1=O` [Compound 27], less than 250 nM; under `CC1(NC(=O)CCc2c(-c3ccc(F)cc3)[nH]c3c(F)cc(F)cc23)CCNC1=O` (racemic) [Compound 14], 250 to 1000 nM. Under `O=C(CCc1c(-c2ccccc2)[nH]c2cccc(F)c12)N[C@@H]1C(=O)NC[C@H]1O` [Compound 114, 3-(4-fluoro-2-phenyl-1H-indol-3-yl)-N-[(3S,4R)-4-hydroxy-2-oxo-pyrrolidin-3-yl]propanamide] stands less than 250 nM. For `O=C(CCc1c(-c2ccc(F)c(F)c2)[nH]c2c(F)cc(F)cc12)N[C@@H]1C(=O)NC[C@H]1O` [Compound 105] the value was less than 250 nM; for `O=C(CCc1c(-c2ccc(F)cc2)[nH]c2c(F)cc(F)cc12)N[C@@H]1CCNC1=O` [Compound 13], 250 to 1000 nM.

On to `O=C(CCc1c(-c2ccccc2)[nH]c2ccc(F)cc12)N[C@H]1CCNC1=O` [Compound 52], for which the half-maximal inhibitory concentration (IC50) was less than 250 nM. In the case of `O=C(CCc1c(-c2ccc(F)cc2)[nH]c2ccccc12)N[C@@H]1C(=O)NC[C@H]1O` [Compound 87, 3-[2-(4-fluorophenyl)-1H-indol-3-yl]-N-[(3S,4R)-4-hydroxy-2-oxo-pyrrolidin-3-yl]propanamide], the IC50 is less than 250 nM. For `N#Cc1ccc(-c2[nH]c3ccccc3c2CCC(=O)N[C@@H]2C(=O)NC[C@H]2O)cc1` [Compound 116, 3-[2-(4-cyanophenyl)-1H-indol-3-yl]-N-[(3S,4R)-4-hydroxy-2-oxo-pyrrolidin-3-yl]propanamide], the IC50 was less than 250 nM. As to `O=C(CCc1c(-c2ccc(F)cc2)[nH]c2c(F)cc(Cl)cc12)N[C@@H]1C(=O)NC[C@H]1O` [Compound 30], the IC50 is less than 250 nM.
